We go through two molecules from article PMC7409197, “Adenosine Receptors as Neuroinflammation Modulators: Role of A1 Agonists and A2A Antagonists” (Cells, 2020).

Common to all, as to format: cell-based, rat
Test [1] deals with mixed glial cells. The test can be described thus: Griess assay (nitrite production) in mixed glial cells. The note with it: 10 nM, 30 min, after CK cocktail. How it is done:
To test the antioxidant capacity of these new molecules Griess assay was performed. The Griess Reagent System is based in the conversion of sulphanilamide into an azo-compound with the presence of N-1-napthylenediamide dihydrochloride (NED) under acidic condition. 1.7 × 10^4 mixed glial cells were cultured in 98 μL of the specific medium in a 96 well plate overnight. After 24 h the media from each well of the cell culture was transferred into a 96 well plate and then 50 µL of the sulphanilamide solution was added to each well. After 5–10 min of incubation at room temperature (rt), 50 µL of the NED Solution were dispensed to all wells and they were incubated at rt for other 5–10 min. Absorbance was measured within 30 min in the plate reader GENiosPro with a filter between 520 nm and 550 nm. This experiment was performed 3–5 replicates. Concentration of NO¬¬¬¬2¯ in each sample was determined by comparison to a Nitrite standard reference curve.

Test [2] relates to mixed glial cells. The test can be described thus: MTS cell viability in cytokine cocktail (CK) inflammatory model, mixed glial cells. On the procedure: (§1) Newborn male Wistar rats were sacrificed and mixed glial cell cultures were obtained from the cerebral cortices. Cerebral cortices were dissected, and meninges were cleared away. Tissues were treated with trypsin solution (trypsin 0.05% (w/v) trypsin-EDTA 5 mM) for 25 min at 37 °C. The tissue was fully disaggregated by pipetting and the dissociated cells were seeded in a 6-well plate with Dulbecco’s modified Eagle’s/High glucose medium enriched with 100 U/mL penicillin, 100 µg/mL streptomycin and 10% FBS. Fresh medium was changed the next day and then every 3 days decreasing the quantity of FBS. All experiments were carried out after 7–9 days of plating.
(§2) Mixed glial cell cultures were divided into 2 groups, one to study A1AR partial agonists and another for A2AAR antagonists. Cells from the first group were pre-treated with 2 µL at three different concentrations of C1 for 15, 30 or 60 min and then with further addition of a pro-inflammatory cocktail of cytokines (TNF-α, 20 ng/mL; IL-1β, 20 ng/mL; IFN-γ 20 ng/mL) for 48 h. […] To study C2 cells were pre-treated with the same CK cocktail for 48 h and then with 2 µL of C2 at three different concentrations for 15, 30, or 60 min (Scheme 1). ZM241385, a well known A2AAR antagonist, was used as reference compound. Furthermore, ligands and CK were tested alone for 15, 30 or 60 min and 48 h respectively.
(§3) 1.7 × 10^4 mixed glial cells were cultured in 98 μL of the specific medium in a 96 well plate overnight. The next day 2 μL of ligand or CK cocktail were added to the well. After all treatments, 20 µL of CellTiter 96® AQueous One Solution Reagent was added in a final volume of 100 µL. Absorbance was read at 490 nm using the plate reader GENiosPro. Cell viability was calculated as percentage using the following formula: Cell viability =OD mean of treated cells/OD mean of control cells × 100

Test [3] has as its system mixed glial cells. The test can be described thus: CellTiter 96 AQueous One (MTS) cell viability, ligands alone, mixed glial cells. On the procedure:
as §1, §2, §3

For `Nc1nc(NCCc2ccc(O)cc2)nc2nc(-c3ccco3)nn12` [ZM241385, reference compound], the “nitrite levels in presence of CK cocktail” value with mixed glial cells [1] was “able to decrease NO¬¬¬¬2¯ levels induced by CK more than the well know ZM241385”. Also, the “cell viability vs. control” value in the test with mixed glial cells [2] (CK cocktail 20 ng/mL 48 h, then ligand 10 nM for 30 min) amounted to 136 ± 1.7%; in the test on mixed glial cells [3] (ligand alone, 10 nM, time not stated at the place (highest effect at 30 min)), 135 ± 3.5%.
Take `OC[C@H]1O[C@@H](n2cnc3c(NC4CCCC4)nc(Cl)nc32)[C@H](O)[C@@H]1O` [CCPA, 2-chloro-N^6-cyclopentyladenosine, reference compound]: the “prevention of CK aggression (cell viability, words)” value in the test on mixed glial cells [2] (pre-treatment before CK cocktail 48 h, C1 2-30 µM, CCPA 10 nM 30 min) is listed as “prevent the CK aggression”. Moreover, in the test on mixed glial cells [3] (ligand alone, 5, 10, 60 nM, 15, 30, 60 min), the “cell viability vs. control” value is given as “did not change cell viability significantly”.
